Measured values: patent US9290529B2, “Carbonic anhydrase inhibitors and method of their production” (USTAV ORGANICKE CHEMIE A BIOCHEMIE AKADEMIE VED CESKE …, priority 2011, dated 2016)

Tests used:
[1] = target: T1, human carbonic anhydrase II (hCA II) (Homo sapiens, UniProt P00918); assay: Colorimetric carbonic anhydrase inhibition assay (CO2 hydration, phenol red), hCA II; type: biochemical; conditions: 0° C., HEPES pH 7.0
T1 construct: purchased Sigma Aldrich C6165
Description: (§1) The compounds were assayed for inhibition activity of two isoforms of human carbonic anhydrase: hCA II and hCA IX. The human carbonic anhydrase II (HCA II) was purchased from Sigma Aldrich (Cat. No. C6165) in the form of lyophilized protein, which was dissolved before use in 10 mmol·l^−1 HEPES pH 7.0 to a concentration of 300 μmol·l^−1 and further diluted as required. Human carbonic anhydrase IX (HCA IX) was prepared by recombinant expression system in insect (Drosophila expression system, Invitrogen). […] This protein was further purified from media by chelating chromatography carrier His-Select Nickel Affinity Gel (Sigma, Cat No. P6611) and gel chromatography (Superdex 200 GL 30/300, GE Healthcare) according to the manufacturer's recommendations.
(§2) The principle of the method is based on measuring the rate of acidification of the solution that is observed as the color-shift of the acid-base-indicator (fenol red). The reaction was conducted in a glass tube placed in an ice bath (0° C., all stock solutions and enzymes were kept at the same temperature). […] This was followed by a CO2 saturation (stream flow 50 ml/min.) using a needle (18 G) up to color transition of fenol-red from red to yellow (typically 60 seconds by default). […] End point of reaction was determined by visual comparison with reference tube containing acid-base indicator (0.01% (wt./vol.) Fenol-red) and the pH adjusted to 7.0. […] Molar activity was calculated according to the formula:
(§3) [formula] where tB is the time of negative control without enzyme and tS is the time measured with an enzyme sample (and inhibitor), nprot is the number of moles of protein present in the sample. The value of IC50 for the inhibitor concentration corresponds inhibitor contraction required to decrease the specific activity to half of the value of non-inhibited enzyme. Selectivity towards CA IX inhibitor was calculated as the ratio of IC50 values for inhibition of HCA II against the value of IC50 for inhibition CA IX enzyme.

[2] = target: T2, human carbonic anhydrase IX (hCA IX) (Homo sapiens, UniProt Q16790); assay: Colorimetric carbonic anhydrase inhibition assay (CO2 hydration, phenol red), hCA IX; type: biochemical; conditions: for IC50: 0° C., HEPES pH 7.0, recombinant extracellular CA domain, read-out: IC50 (hCA IX); for Selectivity to hCA IX IC50 (hCA II)/IC50 (hCA IX): ratio of IC50 values
T2 construct: Construct contained the extracellular CA domain (amino acid residues 139-390) cloned into the pMT/BiP/V5-His vector; His tag (from vector pMT/BiP/V5-His) (C); BiP secretion signal (from vector pMT/BiP/V5-His) (N); made in house; host or cells: Drosophila expression system (Invitrogen), insect cells, secreted into SF 900 II medium
Description: as §1, §2, §3

HCT116 cells = assay: Flow cytometric measurement of intracellular pH (pHi), HCT116 expressing CAIX; type: cell-based, human
Description: (§4) The effect of carborane CAIX (carbonic anhydrase IX) inhibitors was evaluated on colorectal cancer cell line HCT116 expressing CAIX enzyme versus CA IX negative cell line of T-lymphoblastic leukemia CCRF-CEM. Acetazolamide, a known inhibitor of CAIX, was used as a standard. HCT116/CCRF-CEM cells were cultivated in McCoy/RPMI Media supplemented with 10% FCS and antibiotics and seeded at high density ([…] per 3.5 cm dish) to induce pericellular hypoxia and thus stimulate CA IX expression. Measurement of pHi was assessed as described in Cianchi et al. [Cianchi F., et al. Selective inhibition of carbonic anhydrase IX decreases cell proliferation and induces […] apoptosis in human cancer cells. The Journal of Pharmacology and Experimental Therapeutics, 2010, Vol. 334, No. 3, 710-719].
(§5) […] The pHi was measured by flow cytometry in cell cultures pretreated with 10 μM of pH sensitive probe carboxyseminaphtorhoda-fluor-1-acetoxymethyl ester (SNARF, Invitrogen, CA) for 15 min at 37° C. After incubation, the cells were washed twice with PBS. Because the addition of bicarbonate can affect pHi, all incubation and cell washes were performed in bicarbonate-free buffer. SNARF was excited at 488 nm and emitted at 580 and 640 nm. The ratio of the emission wavelengths at 640/580 nm was then used to estimate the pHi from a calibration curve. The calibration curve was prepared by nigericin clamp technique. In this method, after the SNARF labeling of untreated cells, aliquots of cell suspensions were re-suspended in a high potassium containing buffer at specific pH (usually 6.8, 7.0, 7.2, 7.4, 7.6 and 7.8). The cell suspensions were then clamped at a specific pH value by the addition of 0.03 μM nigericin (Sigma-Aldrich). Nigericin is a ionophore that allows the exchange of H for K ions, thus abolishing the pH gradient across the cell membrane. When the internal and external K concentrations are approximately equal, the pH rapidly equilibrates to the pH of the bathing solution. A total of 20,000 events were acquired on a FACS ARIA II flow cytometer (Becton. Dickinson) for further analysis.
(§6) The fluorescent ratio values (640/580 nm) calculated for each pH point were further used to construct calibration curve in Prism software (GraphPad Software, Inc., San Diego, Calif.), from which the pHi values in treated cells were determined (Table 3).

CCRF-CEM cells = assay: Flow cytometric measurement of intracellular pH (pHi), CA IX negative CCRF-CEM; type: cell-based, human; conditions: 50 μM acetazolamide, 24 hour incubation, control 7.362
Description: as §4, §5, §6

Compound | IC50 [1] [nM] | IC50 [2] [nM] | Selectivity to hCA IX IC50 (hCA II)/IC50 (hCA IX) [2] | pHi (HCT116 cells; HCT116, 50 μM acetazolamide, 24 hour incubation, control 7.516) | intracellular acidification in HCT116 cells (HCT116 cells; carboranes 1 μM versus acetazolamide 50 μM) | pHi (CCRF-CEM cells)
1-(3-sulfamoyl-propyl)-3,3′-commo-(decahydro-1,2-dicarba-3-cobalta(III)-undecahydro-1′,2″-dicarba-closo-dodecabor)ate (1-), sodium salt dihydrate [CB-26] | 110 | 14 | 7.9 |  |  | 
1-(2-sulfonamidethyl)-1,2-dicarba-closo-dodecaborane [CB-23] | 400 | 380 | 1.05 |  |  | 
1,1′-bis(3-sulfamoylpropyl)-3,3′-commo-bis(1,2-dicarba-3-cobalta(III)-closo-dodecabor)ate (1-) [CB-25] | 40 | 4 | 10 |  |  | 
1-propylenesulfamide-3,3′-commo-bis(1,2-dicarba-3-cobalta(III)-closo-dodecabor)ate (1-) [CB-29] | 3900 | 22 | 177 |  |  | 
1-ethylenenesulfamide-3,3′-commo-bis(1,2-dicarba-3-cobalta(III)-closo-dodecabor)ate (1-) [CB-30] | 570 | 0.7 | 814 |  |  | 
9-sulfamide-10′-amine-2,2′-commo-(1,7,9-tricarba-1′,7′, 10′-tricarba-2-ferra(H)-closo-dodekabor)ane [CB-11] | 83900 | 1500 | 55.9 |  |  | 
CC(=O)Nc1nnc(S(N)(=O)=O)s1 [acetazolamide, reference compound] |  |  |  | 7.47 | mild intracellular acidification | 7.34
